Experimental findings from paper PMC9255995 (Oncotarget, 2022) are described below.

The structures appear in SMILES notation.

Data set [1] deals with pRb (Ser780) in MDA-MB-453 cells. Kind of data set: pRb (Ser780) high content imaging cellular assay, CDK4-dependent MDA-MB-453. The data set is classed as cell-based. The note with it: Homo sapiens, CDK4-dependent cell line, n = 4, read-out: pRb (Ser780) Cellular assays IC50 MDA-MB-453. How it is done: (§1) Intracellular phosphorylation of Rb in its residue 780 (Ser780) was measured using fluorescently labeled phospho-specific antibodies and high content imaging. […]
The mean fluorescence intensity, (Thermo Fisher P3566) dilution in PBS was added for 1 h or median of fluorescence (MFI), was calculated, and at RT. Fluorescence plates were scanned with ACUMEN compared for individual well and condition. EXPLORER™ monitoring Alexa Fluor 488 and PI signals Cell cycle was analyzed using a Ki67/PI protocol. using 488nm wavelength. […]
(§2) (Immunostep, PI/RNASE) for 15 min at RT in the dark. and representation of final readouts. JMP (Statistical […]
(§3) pRb Ser780 – high content imaging cell-based was incubated with an antibody against Annexin V. After assay [previously described in Torres-Guzmán et al. 10 minutes of incubation in dark, cells were washed twice (2017)] using Annexin buffer V. Finally, cells were analyzed using MDA-MB-453 (CDK4-dependent) and NCI-H1568 the flow cytometer where PI (1:100) was automatically (CDK6-dependent) cells were seeded at a density of 5 000 added. The percentage of cells at the different phases of and 3 000 cells per well, respectively, in 96-well plates. apoptosis was represented (PI–/Annexin V- for Alive cells, Between 14–24 h after seeding, cells were treated with PI–/Annexin V+ for Early apoptotic cells, PI+/Annexin […]
(§4) V+ for Late apoptotic cells and PI+/Annexin V– for Dead
(§5) Compounds were provided as 10mM stock in 100% cells).
(§6) DMSO and were further diluted to achieve the desired Senescence final concentration (DMSO 0.2%). For fluorescent detection of β-galactosidase, cells After treatment with compounds, the cells were washed with PBS 1X and fixed using 2% PFA incubated at 37°C and 5% CO2 for 4h before being (Acros organics, 119690010) for 10 minutes. Then, cells washed once with PBS and adding 100 μl of fresh media. were washed using PBS+1%BSA and incubated with the […]

For a further data set, the system named is pRb in MDA-MB-361 cells. Briefly: Inhibition of pRb in breast cancer cell line MDA-MB-361. It is filed as cell-based. Conditions: Homo sapiens, 16 hours.
Data set [2] in a line: Viability of isolated mature neutrophils from human whole blood (Annexin V/PI). It is filed as cell-based. On the procedure: Human whole blood was obtained from six healthy donors who previously provided written informed consent. Mature neutrophils were isolated from human whole blood, using a negative-selection technique (MACSxpress isolation kit, Miltenyi 130-104-434). CD16 cell surface expression (Miltenyi, 130-113-396) was used as quality control; only samples with yield > 95% passed QC. CD34+ human bone marrow primary progenitor cells were obtained from Tebu bio (BM34C-4).
Mature neutrophils were plated in a 96-well plate (60K cells per well) in 100 μl RPMI 1640 (Invitrogen), 10% hiFBS (Fisher) and 1% Pen/Strep (Invitrogen).
Neutrophils were plated in a 96-well plate (60K cells/well) in the above-mentioned cell medium. A 10 mM stock of each CDK4 & 6i was used to make ten-point 1:3 serial dilutions in 100% DMSO; multiple dilution steps were used to reach the concentration in the assay: 10 μM, 0.1% DMSO. Non-treated cells (0.1% DMSO) and roscovitine (20 μM) were used as controls. Neutrophils were incubated for 6 h. Following treatment, cells were washed with FACS flow (BD, 342 003), and supernatant was removed. The cell pellet was stained with Annexin V-FITC antibody for 10 min in the dark. Cells were washed with Annexin buffer, centrifuged at 300 G for 5 min, supernatant was discarded, and cell pellet was resuspended in 100 μl of Annexin buffer and analyzed by flow cytometry. PI 1:200 was added automatically by the cytometer. All incubations occurred at 37°C, 5% CO2.
The percentage of alive, early apoptosis, late apoptosis, and dead cells was monitored using the Annexin V/PI assay. Cells were incubated with an anti-human Annexin V-FITC antibody, binding specifically to phosphotidylserine (PS), for 10 min in the dark. PS redistributes to the outer part of the cell membrane in an early stage of apoptosis; in late apoptotic cells, as the cell membrane loses its integrity, both PS and PI can be detected. […]

The test system of the next data set is pRb in HCC70 cells. Kind of data set: Inhibition of pRb in breast cancer cell line HCC70. The data set is classed as cell-based. The note with it: Homo sapiens, 16 hours.
For another data set, the system named is pRb in MDA-MB-231 cells. Kind of data set: Inhibition of pRb in breast cancer cell line MDA-MB-231. The data set is classed as cell-based. The note with it: Homo sapiens, 16 hours.
In data set [3] the test system is pRb in MDA-MB-175 VII cells. Kind of data set: Inhibition of pRb in breast cancer cell line MDA-MB-175 VII. Conditions: Homo sapiens, 16 hours. The data set is classed as cell-based.
The test system of a further data set is T47D cells. Briefly: T47D continuous dosing, apoptosis by Annexin V/PI flow cytometry. Conditions: after 8 days of continuous dosing. The data set is classed as cell-based, human. On the procedure:
T47D cells were seeded in six-well plates (50 000 cells/well) in 2 ml of cell medium (10% hiFBS [Fisher] and 1% Pen/Strep [Invitrogen]). […] Non-treated cells (0.04% DMSO) and staurosporine 1 μM were used as controls for minimum and maximum inhibition controls respectively. […] Cells were then detached using trypsin and transferred to the deep well plate and spun at 1 300 rpm for 5 min. Cell pellet was washed using PBS1X and plated for apoptosis measurement (Annexin V/PI), using the procedure described above (mature neutrophils). All cells were gated on FSC/SSC to exclude debris and doublets.

The subject of the next data set is pRb in EFM-19 cells. Kind of data set: Inhibition of pRb in breast cancer cell line EFM-19. It is filed as cell-based. The note with it: Homo sapiens, 16 hours.
The subject of data set [4] is pRb (Ser780) in NCI-H1568 cells. Kind of data set: pRb (Ser780) high content imaging cellular assay, CDK6-dependent NCI-H1568. The data set is classed as cell-based. The note with it: Homo sapiens, CDK6-dependent cell line, n = 4, read-out: pRb (Ser780) Cellular assays IC50 NCI-H1568. How it is done: as §1
(§7) using the flow cytometer (gated on single and alive RNase A (Sigma R6513) and Propidium Iodide (PI) cells subpopulations). The mean fluorescence intensity, (Thermo Fisher P3566) dilution in PBS was added for 1 h or median of fluorescence (MFI), was calculated, and at RT. Fluorescence plates were scanned with ACUMEN compared for individual well and condition. EXPLORER™ monitoring Alexa Fluor 488 and PI signals Cell cycle was analyzed using a Ki67/PI protocol. using 488nm wavelength. […]
as §2, §3, §4, §5, §6

For another data set, the system named is pRb in MCF-7 cells. Briefly: Inhibition of pRb in breast cancer cell line MCF-7. It is filed as cell-based. Conditions: Homo sapiens, MCF7; 16 hours.
A further data set deals with pRb in MDA-MB-134 cells. Kind of data set: Inhibition of pRb in breast cancer cell line MDA-MB-134. Conditions: Homo sapiens; 16 hours. The data set is classed as cell-based.
A further data set concerns pRb in BT474 cells. Kind of data set: Inhibition of pRb in breast cancer cell line BT474. It is filed as cell-based. Conditions: Homo sapiens, BT-474; 16 hours.
For data set [5], the system named is Rb1-deficient breast cancer cell lines. Briefly: Breast cancer cell panel proliferation (nuclei count). It is filed as cell-based, human. The note with it: two doublings. On the procedure: A panel of 37 BC cell lines (see Supplementary Table 3 for details) was obtained from the American Type Culture Collection (ATCC, Manassas, Virginia, USA 30-4500 K) or the German Collection of Microorganisms and Cell Cultures GmbH (DSMZ). Cells were cultured according to ATCC or DSMZ recommendations for fewer than ten passages. Cells were seeded in 96 or 384-well plates and incubated overnight prior to treatment.
Cells were plated at 1,000 or 2,000 cells per well in 384-well plates in a total volume of 25 μl of either growth media alone; with 2 μM staurosporine; or with decreasing concentrations of test compounds with a range 20 μM–1 nM. Test compounds were prepared in 100% DMSO using a dilution factor of 1:3 before addition to the cells pre-diluted in growth media. Cells were incubated at 37°C until the untreated cells had doubled twice. Cells were fixed with 70% ethanol, treated with RNAse and nuclei stained with Propidium Iodide (PI). Cell nuclei per well were counted using an ACUMEN EXPLORER™ (STP LABTECH LTD) to determine the number of cells remaining after treatment. […]
were thawed and resuspended in IMDM, 10% hiFBS […]
by curve, slope = steepness of curve at IC50. IC50: 558385), anti-CDK4 antibody (Abcam ab75511) and anti- […]
(ligand binding, enzyme response) by 50%. Fujifilm LAS4000. Actin (Sigma A5441) was used as a %Inh = [(median Max- x/ median Max – median loading control. […]
model were plotted as Geometric means in a waterfall plot using knime workflows. […]
containing 200 μg/ml Ribonuclease A (Sigma R6513).
To monitor senescence, cells […]
treated cells. The same procedure was also followed to instructions. […]
process. was removed. Cell pellet was incubated with Annexin […]
treated controls. […] Cells were analyzed […]
antibodies against CD13-FITC and CD11b-PE. After 10 exclusion and singlets selection). A minimum of 5000 […]
and supernatant was discarded. Cells were resuspended in (Alive). AnnexinV+/PI– (Early apoptosis), Annexin+/PI+ buffer for acquisition in flow cytometer. […]
cytometer (488-nm laser and 585/40nm filter). […] Finally, cells were washed and analyzed

For data set [6], the system named is pRb (Ser780) in MDA-MB-453 cells. Briefly: pRb (Ser780) washout experiment in MDA-MB-453. The data set is classed as cell-based. The note with it: Homo sapiens. How it is done: as §7
Next, cells were washed, Raw data were analyzed with FlowJo 10.6 software. and the cell pellet was incubated with PI/RNase A Graph Pad v8.4.3 software was used for data analysis (Immunostep, PI/RNASE) for 15 min at RT in the dark. and representation of final readouts. JMP (Statistical Cells were analyzed using the flow cytometer (gated for Discovery from SAS) was used for the statistical treatment debris exclusion and single cells). A minimum of 5 000 (ANOVA, pair-wise analysis) of the data. […]
All data were analyzed using FlowJo 10.6 and Graph Pad […]
as §3, §4, §5, §6

Another data set concerns the target CDK4/CyclinD1 (Homo sapiens, UniProt P11802). Conditions: cell-free assay, KiATP.
The mark [7] stands for this setting: read-out: relative IC50 for pRb (Ser780) reduction, 12 h after compound removal, MDA-MB-453, 4 h treatment then 12 h washout.
[8] abbreviates: MDA-MB-453, 4 h treatment, before compound removal, read-out: relative IC50 for pRb (Ser780) reduction, treatment phase.

Sequence of CDK4/CyclinD1 (P11802 whole entry): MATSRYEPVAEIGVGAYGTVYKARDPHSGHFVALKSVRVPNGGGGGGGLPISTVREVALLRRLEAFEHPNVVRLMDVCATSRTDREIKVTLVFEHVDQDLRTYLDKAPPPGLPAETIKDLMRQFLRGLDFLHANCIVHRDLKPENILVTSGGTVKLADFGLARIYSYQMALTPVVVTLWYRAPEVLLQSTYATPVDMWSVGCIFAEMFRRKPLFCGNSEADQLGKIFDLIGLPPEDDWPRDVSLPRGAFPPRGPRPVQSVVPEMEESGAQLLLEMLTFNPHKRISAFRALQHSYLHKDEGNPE
Sequence of CDK4/CyclinD1 (P24385 whole entry partner): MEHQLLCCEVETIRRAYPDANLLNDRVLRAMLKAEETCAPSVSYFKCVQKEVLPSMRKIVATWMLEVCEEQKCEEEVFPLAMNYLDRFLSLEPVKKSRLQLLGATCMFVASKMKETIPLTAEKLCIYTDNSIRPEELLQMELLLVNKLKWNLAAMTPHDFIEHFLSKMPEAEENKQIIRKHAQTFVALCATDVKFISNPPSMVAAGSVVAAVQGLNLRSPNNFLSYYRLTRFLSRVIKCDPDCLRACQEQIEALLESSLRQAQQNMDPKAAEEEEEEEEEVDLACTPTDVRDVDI
Procedure for CDK4/CyclinD1: Compounds were mixed with substrate mix (C-terminal retinoblastoma fragment [CTRF] peptide and ATP/33-P ATP) at a final concentration range of 2 μM–0.1 nM. The mix was incubated for 90 min at RT and the reaction was then stopped by adding 80 μl of 10% ortho-Phosphoric acid. The mix was next transferred to Multiscreen filter plates (Millipore) to retain phosphorylated peptide. The plates were read in a Microbeta Trilux instrument. Reaction mix with excess of EDTA was used as assay “bottom signal”; complete reaction mix without the inhibitor/compound was used as assay “top signal”.
For IC50 determination, results were fitted to a four-parameter dose-response curve using the following equation:
For the ATP saturation studies Ki and K’i parameters were estimated using the formula:
V=Vmax[S]/[Km(1+[I]/Ki)+[S](1+[I]/Ki')]

Consider `CC(=O)c1c(C)c2cnc(Nc3ccc(N4CCNCC4)cn3)nc2n(C2CCCC2)c1=O` [Palbociclib, palbociclib], for which the IC50 (usually the concentration at which inhibition is half-maximal) is 23 nM in data set [1]; 14.6 ± 2.1 nM in the data set on pRb in MDA-MB-361 cells; greater than 6000 nM with pRb in HCC70 cells; 16.1 ± 7.6 nM with pRb in MDA-MB-231 cells; 18.9 ± 4.7 nM in [3]; 11 ± 0.6 nM in the data set with pRb in EFM-19 cells. The 50% inhibitory concentration (IC50) was determined as 63 nM in data set [4]; 25.6 ± 14 nM in the data set on pRb in MCF-7 cells; 20.5 ± 8.2 nM in the data set with pRb in MDA-MB-134 cells; 11.5 ± 5.5 nM in the data set on pRb in BT474 cells; 447 nM in data set [6] (setting [7]); 14.1 nM in [6] (setting [8]). For the same compound, in [2], the viability – broadly, a per cent measure of how many cells are alive, often set against a control – at 6 h came to 82.9%. Further, the results for the “percentage in total apoptotic and dead cells” value with T47D cells (50 nM) and in the data set on T47D cells (100 nM) were 13.2% and 18.7%, respectively. In addition, the “activity in Rb1-deficient cell lines (proliferation)” value (“activity in Rb1-deficient cell lines” for short) in data set [5] is “inactive”.

For the compound `CN(C)C(=O)c1cc2cnc(Nc3ccc(N4CCNCC4)cn3)nc2n1C1CCCC1` [Ribociclib, ribociclib], the IC50 is 53 nM in data set [1]; 54.2 ± 13.8 nM in the data set with pRb in MDA-MB-361 cells; greater than 6000 nM in the data set on pRb in HCC70 cells; 71.5 ± 26.5 nM in the data set on pRb in MDA-MB-231 cells; 115 ± 80.9 nM in [3]; 31 ± 3.6 nM in the data set with pRb in EFM-19 cells. Further, the IC50 stood at 554 nM in data set [4], 116 ± 78.5 nM in the data set with pRb in MCF-7 cells, 60 ± 19.7 nM with pRb in MDA-MB-134 cells and 34 ± 26.7 nM in the data set on pRb in BT474 cells. The compound also gave a viability at 6 h in data set [2] of 81.4%. The “activity in Rb1-deficient cell lines” value in data set [5] was “inactive”.

As to `CCN1CCN(Cc2ccc(Nc3ncc(F)c(-c4cc(F)c5nc(C)n(C(C)C)c5c4)n3)nc2)CC1` [Abemaciclib, abemaciclib], the 50% inhibitory concentration (IC50) in data set [1] is 7.4 nM; in the data set with pRb in MDA-MB-361 cells, 8.24 ± 1.6 nM; in the data set with pRb in HCC70 cells, greater than 6000 nM; in the data set with pRb in MDA-MB-231 cells, 17.1 ± 4.2 nM; in data set [3], 17.8 ± 2.8 nM; with pRb in EFM-19 cells, 4.4 ± 1.2 nM. The IC50 in data set [4] is 94 nM; with pRb in MCF-7 cells, 19.4 ± 7.4 nM; in the data set on pRb in MDA-MB-134 cells, 8.5 ± 0.9 nM; in the data set with pRb in BT474 cells, 4.58 ± 2.9 nM; in data set [6] (setting [7]) it was less than 100 nM; in data set [6] (setting [8]) it was 6.4 nM. The viability at 6 h in data set [2] was found to be 82.5%. For the same compound, the “specificity for CDK4/Cyclin D1 over CDK6/Cyclin D3 complexes” value on CDK4/CyclinD1 was “approximately 14 fold”. In addition, the “percentage in total apoptotic and dead cells” value is given as 28.1% in the data set with T47D cells (50 nM) and 40.7% with T47D cells (100 nM). For the same compound, in data set [5], the “activity in Rb1-deficient cell lines” value was “inactive”.
